Read-outs that look alike come from different tables or passages of the source.
Columns and labels:
[1] = Measurement of parent and metabolite levels in mice (plasma and brain levels after single oral co-dosing); format: in vivo; conditions: for Cmax / Tmax / AUC / concentration at […] / concentration at 0.5 h / concentration at 1 h / concentration at 2 h / concentration at 4 h: mouse, single dose oral, co-dosed; for AUC: 0.25-4 hr sampling; for concentration at […]: 0.25 hr
Protocol: The compound of Example 1 and the compound of Formula Q are co-dosed in mice (n=3), and the levels of the both compounds are studied. Procedures for the synthesis of the compound of Formula Q can be found in WO 2008/112280. […] The mean values for maximum concentration, time to maximum concentration, and Area Under the Curve (AUC) for both compounds is determined.

[2] = test system: dopamine receptor (e.g., D2); experiment: Receptor binding studies, dopamine receptor
[3] = test system: serotonin receptor (e.g., 5-HT2A); experiment: Receptor binding studies, serotonin receptor
serotonin transporter = serotonin transporter (Homo sapiens, UniProt P31645); experiment: Receptor binding studies, serotonin transporter
Sequence of serotonin transporter (P31645 whole entry): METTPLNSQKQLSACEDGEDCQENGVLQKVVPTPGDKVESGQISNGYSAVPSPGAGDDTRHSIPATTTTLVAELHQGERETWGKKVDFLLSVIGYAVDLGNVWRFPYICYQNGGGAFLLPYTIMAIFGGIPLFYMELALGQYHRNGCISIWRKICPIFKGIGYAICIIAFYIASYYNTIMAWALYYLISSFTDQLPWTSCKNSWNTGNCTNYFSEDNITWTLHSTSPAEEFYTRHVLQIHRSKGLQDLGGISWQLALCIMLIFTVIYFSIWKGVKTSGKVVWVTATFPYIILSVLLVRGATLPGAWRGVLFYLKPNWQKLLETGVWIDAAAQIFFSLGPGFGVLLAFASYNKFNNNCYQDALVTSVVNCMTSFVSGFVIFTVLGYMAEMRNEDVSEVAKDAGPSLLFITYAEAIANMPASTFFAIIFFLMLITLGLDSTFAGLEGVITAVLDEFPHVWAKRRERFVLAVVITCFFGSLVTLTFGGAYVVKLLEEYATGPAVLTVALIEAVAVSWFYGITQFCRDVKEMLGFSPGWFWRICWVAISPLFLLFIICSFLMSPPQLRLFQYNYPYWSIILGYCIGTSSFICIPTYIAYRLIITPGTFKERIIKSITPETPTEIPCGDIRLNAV

[4] = mean n=3, brain, read-out: Brain level
[5] = mean n=3, plasma, read-out: Plasma level

Row | Metabolic clearance compared to the compound of Formula Q ([1]; concluded from higher Cmax and AUC values) | Cmax ([1]; brain) [ng/g] | Tmax ([1]; brain) [min] | AUC ([1]; brain) [ng·h/mL] | concentration at […] [1, 4] [ng/g] | concentration at 0.5 h [1, 4] [ng/g] | concentration at 1 h [1, 4] [ng/g] | concentration at 2 h [1, 4] [ng/g] | concentration at 4 h [1, 4] [ng/g] | concentration at […] [1, 5] [ng/mL] | concentration at 0.5 h [1, 5] [ng/mL] | concentration at 1 h [1, 5] [ng/mL] | concentration at 2 h [1, 5] [ng/mL] | concentration at 4 h [1, 5] [ng/mL] | Cmax ([1]; plasma) [ng/mL] | Tmax ([1]; plasma) [min] | AUC ([1]; plasma) [ng·h/mL] | Compound | Receptor binding profile compared to the compound of Formula Q [2] | Receptor binding profile compared to the compound of Formula Q [3] | Receptor binding profile compared to the compound of Formula Q (serotonin transporter)
1 | reduced metabolic clearance | 402 | 30 | 404 | 238 | 402 | 39.4 | 67.7 | 62.1 | 30.4 | 38.1 | 11.6 | 31.4 | 16.8 | 38.1 | 30 | 94.5 | [2H]C1([2H])N(C)c2cccc3c2N([C@H]2CCN(CCCC(=O)c4ccc(F)cc4)C[C@@H]32)C1([2H])[2H] [Example 1, 1-(4-fluorophenyl)-4-((6bR,10aS)-1,1,2,2-tetradeuterio-3-methyl-2,3,6b,7,10,10a-hexahydro-1H-pyrido[3′,4′:4,5]pyrrolo[1,2,3-de]quinoxalin-8(9H)-yl) butan-1-one p-toluenesulfonate] | substantially the same receptor binding profile | substantially the same receptor binding profile | substantially the same receptor binding profile
2 |  | 384 | 30 | 387 | 228 | 384 | 37.9 | 65.6 | 58.8 | 28.2 | 34.9 | 11 | 29.9 | 16.3 | 34.9 | 30 | 89.5 | CN1CCN2c3c(cccc31)[C@@H]1CN(CCCC(=O)c3ccc(F)cc3)CC[C@@H]12 [Formula Q, reference compound] |  |  | 
